Tests used:
murine eIF4E (28-217) = target: T1, murine eIF4E (28-217) (Mus musculus, UniProt P63073); experiment: Binding affinities for eIF4E by fluorescence quenching; details: murine eIF4E (28-217); for KAS: equilibrium association constant, fluorescence quenching; for ΔG°: binding free energy calculated from KAS
T1 construct: (28-217) to phosphorothioate cap analogs, as determined
Experimental: Binding affinities of S analogs for murine eIF4E were determined by fluorescence quenching. Fluorescence titration measurements were carried out on an LS-50B spectrofluorometer (Perkin Elmer Co.) in 50 mM HEPES/KOH (pH 7.2), 100 mM KCl, 0.5 mM EDTA, 1 mM DTT at 20.0±0.2° C. Aliquots of 1 μl increasing concentration of cap analogue solutions were added to 1.4 ml of […] solutions. Fluorescence intensities (excitation at 280 nm with 2.5 nm bandwidth and detection at 337 nm with 4 nm bandwidth and 290 nm cut-off filter) were corrected taking into account sample dilution and the inner filter effect. Equilibrium association constants (KAS) were determined by fitting the theoretical dependence of the fluorescence intensity on the total concentration of cap analogue to the experimental data points according to equation described previously (See A. Niedzwiecka et al., “Biophysical studies of eIF4E cap-binding protein: recognition of mRNA 5′ cap structure and synthetic fragments of eIF4G and 4E-BP1 proteins,” J. Mol. Biol., vol. 319, pp. 615-635 (2002)). The concentration of protein was fitted as a free parameter of equilibrium equation showing amount of “active” protein. The final KAS was calculated as a weighted average of three to ten independent titrations, with the weights taken as the reciprocals of the numerical standard deviations squared. Numerical nonlinear least-squares regression analysis was performed using ORGIN 6.0 (Microcal Software Inc., USA). The Gibbs free energy of binding was calculated from the KAS value according to the standard equation ΔG°=−RTlnKAS.

hDcp2 = hDcp2 (Homo sapiens, UniProt Q8IU60); experiment: In vitro RNA decapping assay with recombinant hDcp2; format: biochemical; details: capped 32P-labeled short RNA, recombinant hDcp2, anion exchange HPLC (FIG. 6)
Experimental: Dcp2 activity was measured with capped 48-nt oligonucleotides as substrates, a truncated form of luciferase mRNA (48 nucleotides). GST-hDcp2 was expressed in Escherichia coli and purified as described by Z. Wang et al., “The hDcp2 protein is a mammalian mRNA decapping enzyme,” Proc. Natl. Acad. Sci. U.S.A., vol. 99, pp. 12663-12668 (2002). Capped oligonucleotides were first subjected to digestion with GST-hDcp2 at 37° C. for 2 h in decapping buffer (10 mM Tris-HCl, pH 7.5, 100 mM potassium acetate, 2 mM magnesium acetate, 0.5 mM MnCl2, 2 mM dithiothreitol, and 0.1 mM spermine). See C. Piccirillo et al., “Functional characterization of the mammalian mRNA decapping enzyme hDcp2,” RNA, vol. 9, pp. 1138-1147 (2003). The reaction mixture was then extracted once with an equal volume of phenol and twice with chloroform, and RNA was precipitated with ethanol. Products of the decapping reaction were further digested with a cocktail of ribonucleases (RiboShredder; Epicentre) at 37° C. for 1 h. The products were resolved by anion-exchange HPLC on a 4.6×250-mm Partisil 10SAX/25 column (Whatman). The gradient consisted of water for 1 min, a linear gradient to 112 mM KH2PO4, pH 4.5, for 20 min, a linear gradient of 112-450 mM KH2PO4 for 15 min, a linear gradient of 450 mM to 1.5 M KH2PO4 for 15 min, and isocratic elution at 1.5 M of KH2PO4 for 9 min, all at a flow rate 1 ml/min.
We tested oligonucleotides capped with either of S-ARCAs for hydrolysis by recombinant hDcp2 to test whether mRNA capped with the various diastereomers of m2^7,2′-OGpppsG and m2^7,2′-OGppspG would differ in their sensitivity to cleavage by Dcp1/Dcp2. See generally Z. Wang et al., “The hDcp2 protein is a mammalian mRNA decapping enzyme,” Proc. Natl. Acad. Sci. U.S.A., vol. 99, pp. 12663-12668 (2002), and Z. Wang et al., “An mRNA Stability Complex Functions with Poly(A)-Binding Protein To Stabilize mRNA In Vitro”, Mol. Cell. Biol., vol. 19, pp. 4552-4560 (1999). Cap analogs used were initially unlabeled, so to follow the products of the digestion reaction we synthesized capped oligonucleotides in the presence of [α-^32P]GTP and a DNA template in which G was the first ribonucleotide specified after the promoter. The oligonucleotides capped with either of the S-ARCAs were subjected to Dcp2 digestion in vitro, after which the products were further digested with a cocktail of ribonucleases (RiboShredder from Epicenter). Any nucleotide on the 5′ side of a G residue acquired a ^32P-labeled 3′-phosphate group after ribonuclease digestion by nearest-neighbor transfer. Anion exchange chromatography was then used to resolve the labeled 3′-nucleoside monophosphates (3′-NMP*), at internal positions in the RNA, from labeled 5′-terminal products (FIG. 6). The latter comprise p3 Gp* derived from uncapped transcripts and m2^7,2′-OGp3 Gp* (when m2^7,2′-OGp3G was used), or pGp* resulting from capped RNA resistant or nonresistant to enzymatic cleavage, respectively. All cap analogs used were ARCAs, which ensured that they were incorporated into RNA exclusively in the correct orientation. This further guaranteed that only one 5′-terminal product (m2^7,2′-OGp3 Gp*) was observed upon ribonuclease treatment. Uncapped RNA is not a substrate for Dcp2, which explains why p3 Gp* product was observed after Dcp2 digestion.
See E. Grudzien et al., “Differential inhibition of mRNA degradation pathways by novel cap analogs,” J. Biol. Chem., vol. 281, pp. 1857-1867 (2006).

DcpS [1] = target: T2, DcpS (Homo sapiens, UniProt Q96C86); experiment: Enzymatic hydrolysis by human DcpS; format: biochemical; set-up: key: the analogs assigned as resistant remained completely undigested under the applied conditions; the analogs assigned as hydrolyzed were hydrolyzed by DcpS with efficiency comparable to the respective unmodified parent compound; details: conditions giving complete degradation of unmodified parent within 40-90 min, RP HPLC
T2 sequence (Q96C86 1-337): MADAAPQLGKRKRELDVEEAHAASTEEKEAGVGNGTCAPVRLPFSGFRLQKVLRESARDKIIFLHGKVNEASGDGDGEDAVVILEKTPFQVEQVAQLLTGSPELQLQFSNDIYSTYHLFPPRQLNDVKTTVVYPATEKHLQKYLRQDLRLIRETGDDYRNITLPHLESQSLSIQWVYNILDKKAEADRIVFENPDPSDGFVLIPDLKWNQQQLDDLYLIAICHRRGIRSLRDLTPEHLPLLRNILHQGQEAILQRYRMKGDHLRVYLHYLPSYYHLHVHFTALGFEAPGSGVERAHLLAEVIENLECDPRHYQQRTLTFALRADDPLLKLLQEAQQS
Experimental: (§1) Human and nematode DcpS were expressed in Escherichia coli according to the procedures described previously (L. S. Cohen et al., “Nematode m7 GpppG and m3(2,2,7)GpppG decapping: activities in Ascaris embryos and characterization of C. elegans scavenger DcpS,” RNA, vol. 10, pp. 1609-1624 (2004)). Both proteins were stored at −80° C. in 20 mM Tris buffer, pH 7.5, containing 50 mM KCl, 0.2 mM EDTA, 1 mM DTT, 0.5 mM PMSF, and 20% glycerol. An appropriate cap analog at 1 mM concentration was treated with 5.0 or 7.0 μl of DcpS (from human or C. elegans, respectively) in 500 μl of 50 mM TRIS buffer, pH=7.9, containing 20 mM of MgCl2 and 60 mM of (NH4)2SO4 at 37° C. for 60-90 min. Every 15-20 min a 100 μl sample was collected from the reaction mixture and deactivated by incubation in 90° C. for 3 min. Collected samples were analyzed without further treatment by analytical RP HPLC using a linear gradient of methanol in 0.1 M KH2PO4, pH=6.0, from 0-50% within 15 min and UV-detection at 260 nm.
(§2) The new series of S-analogs were subjected to in vitro enzymatic hydrolysis catalyzed by DcpS from both human and C. elegans sources. In all experiments, the corresponding unmodified cap analog was used as a positive control, i.e., m^7GpppG for non-ARCA S-analogs and m2^7,2′-OGpppG for S-ARCAs. The amount of DcpS enzyme was optimized to provide complete degradation of the control substrate within 40-90 min. The samples collected from reaction mixtures at various time intervals were analyzed by RP HPLC (as described in Materials and Methods).
(§3) In Table 4, cap analogs at 4 μM concentration were subjected to enzymatic digestion by DcpS in conditions leading to complete degradation of the unmodified parent compound (i.e. m^7GpppG for non-ARCA S-analogs and m2^7,2′-OGpppG for ARCAs) within 40-90 min. Samples collected from reaction mixtures at various time intervals were analysed by RP HPLC with UV detection at 260 nm as described in Materials and Methods. […] The result was unchanged even if the reaction time was extended to 24 h, various amounts of enzyme were used, and composition of the reaction buffer was modified.

DcpS [2] = target: T3, DcpS (Caenorhabditis elegans, UniProt G5EFS4); experiment: Enzymatic hydrolysis by C. elegans DcpS; format: biochemical; set-up: key: the analogs assigned as resistant remained completely undigested under the applied conditions; the analogs assigned as hydrolyzed were hydrolyzed by DcpS with efficiency comparable to the respective unmodified parent compound; details: conditions giving complete degradation of unmodified parent within 40-90 min, RP HPLC
T3 sequence (G5EFS4 1-311): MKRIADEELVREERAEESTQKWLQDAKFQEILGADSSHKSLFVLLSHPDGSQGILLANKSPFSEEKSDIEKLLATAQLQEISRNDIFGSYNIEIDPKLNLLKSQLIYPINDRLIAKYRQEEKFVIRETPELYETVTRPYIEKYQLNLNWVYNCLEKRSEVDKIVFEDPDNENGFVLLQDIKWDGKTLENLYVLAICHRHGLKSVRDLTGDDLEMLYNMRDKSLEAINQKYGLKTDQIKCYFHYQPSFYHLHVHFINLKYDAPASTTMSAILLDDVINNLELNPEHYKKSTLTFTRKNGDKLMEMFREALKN
Experimental: as §1, §2, §3

T1 sequence (P63073 28-217): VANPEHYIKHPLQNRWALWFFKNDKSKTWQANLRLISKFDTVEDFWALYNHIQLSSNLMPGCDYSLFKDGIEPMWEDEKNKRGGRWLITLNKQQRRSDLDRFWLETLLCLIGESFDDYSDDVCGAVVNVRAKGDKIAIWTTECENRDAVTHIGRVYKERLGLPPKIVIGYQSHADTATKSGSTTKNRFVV

Compound	KAS (murine eIF4E (28-217)) [µM⁻¹]	hydrolysis of capped oligonucleotide by hDcp2 (hDcp2)	Resistance to enzymatic hydrolysis by DcpS (human) (DcpS [1])	ΔG° (murine eIF4E (28-217)) [kcal/mol]	Resistance to enzymatic hydrolysis by DcpS (from C. elegans) (DcpS [2])
CO[C@@H]1[C@H](O)[C@@H](COP(=O)(O)OP(=O)([O-])OP(=O)(O)OP(=O)(O)OC[C@H]2O[C@@H](n3cnc4c(=O)[nH]c(N)nc43)[C@H](O)[C@@H]2O)O[C@H]1n1c[n+](C)c2c(O)nc(N)nc21 [m^7,2′-OGppppG, reference compound]	99.8 ± 6.0				
m2^7,2′-OGpppsG		no increase in stability toward hDcp2			
m2^7,2′-OGpsppG		no increase in stability toward hDcp2			
m^7GpppsG (D1) [Compound 1a]	23.6 ± 0.8		hydrolyzed	-9.88 ± 0.02	hydrolyzed
m^7GpppsG (D2) [Compound 1b]	13.1 ± 0.8		hydrolyzed	-9.54 ± 0.03	hydrolyzed
m^7GppspG (D1) [Compound 2a]	45.0 ± 1.1		hydrolyzed	-10.26 ± 0.01	hydrolyzed
m^7GppspG (D2) [Compound 2b]	23.0 ± 0.4		hydrolyzed	-9.87	hydrolyzed
m^7GpsppG (D1) [Compound 3a]			resistant		resistant
m^7GpsppG (D2) [Compound 3b]			resistant		resistant

From patent US8153773B2, “Synthesis and use of anti-reverse phosphorothioate analogs of the messenger RNA cap” (Board of Supervisors of Louisiana State University and …, priority 2007, dated 2012)
